Patent US11246934B2, “Nanoparticles and methods for preparation thereof” (B.G. Negev Technologies & Applications Ltd. at Ben-Gurion …, priority 2015, dated 2022)
Where a name gives a salt, the structure may show the parent alone.

Assays:
[1] = Dynamic dialysis of chloramphenicol, apparent dialysis bag permeability constant; format: physicochemical; conditions: dialysis bag 10K MWCO, NaCl 0.9% w/v
Description: The amount of drug released from the NPs was determined by a dynamic dialysis technique monitoring the drug concentration in the receiver solution (i.e., outer solution surrounding a dialysis bag). The method is based on the assumption that drug is first released from the NPs into the donor solution (i.e., the dissolution medium inside the dialysis bag). Subsequently, the drug can diffuse through the dialysis bag from the donor to the receiver.
A sample of 3 ml of the NP dispersion (1:1 diluted with saline) was introduced into a dialysis bag (SnakeSkin Dialysis Tubing, 10K MWCO, 22 mm, Thermo Fisher Scientific, Rockford, USA). The sample was dialyzed against 60 ml of saline solution (NaCl solution, 0.9%, w/v) for 7 hours. The receiver solution was agitated by magnetic stirring throughout the experimental procedure. Samples of 200 μl were withdrawn from the receiver solution at predetermined time intervals and their drug concentrations were measured by HPLC.
The apparent dialysis bag permeability constant (k′) was calculated according to the method described in ‘Materials and Methods’ section 2.6. […]

[2] = topically applied, eye drops; cited from earlier work
melanoma B16F0 cells = experiment: B16F0 melanoma tumor model in mice; conditions: day 18 of treatment, 0.5 mg/kg s.c. twice a week
Description: Female C57BL/6 mice (5-6 weeks old, 14-18 g) were obtained from Harlan Laboratories Ltd (Jerusalem, Israel). Mice were housed under humidity- and temperature-controlled conditions, and the light/dark cycle was set at 12-h intervals.
B16F0 melanoma cells were maintained in RPMI 1640 medium supplemented with 10% bovine serum and 200 μM L-glutamine, 10 units/mL penicillin, and 10 μg/mL streptomycin (Biological Industries, Beth Ha'Emek, Israel). The cells were kept at 37° C. in a 5% CO2 humidified atmosphere.
The mice were inoculated with melanoma B16F0 cells (1×10^6) subcutaneously in the right flank of the mice. After tumors had been visualized a week later, the mice were weighed and measured for tumor size (244±213 mm^3), and were randomly sorted into three groups. […] Tumor volumes and mouse body weights were measured routinely before each treatment. Measurement of tumor size was performed with a caliper in two dimensions, and individual tumor volumes (V) were calculated by the formula: V=[length×(width)^2]×π/6.
The statistical differences between the therapeutic effects of different treatments on tumor growth were determined by two-tailed Student's test. […]

[3] = tested on: MCF-7 cells (cell line of breast cancer); experiment: MTT cytotoxicity assay in MCF-7 cell line; format: cell-based; conditions: MCF-7, at 1 mg/ml
Description: The direct effect of curcumin and doxorubicin on the viability of cultured cells was assessed in vitro using the MCF-7 cells (cell line of breast cancer). […] Fresh cell medium was then prepared with test compounds in appropriate dilutions (equivalent to their concentrations as determined by HPLC). Cell growth after 48 h was assayed by MTT assay [3-(4,5-Dimethylthiazol-2-yl)-2,5-diphenyltetrazolium bromide, Sigma-Aldrich] and was evaluated by measuring the absorbance at 540 nm after 3 h of incubation in a medium containing 0.5 mg/ml MTT (Sunrise™ absorbance plate reader, TECAN). […] FIG. 13C presents dose response behavior of DOX-loaded and unloaded NPs vs. solutions at various concentrations after 24-h and 48-h incubation.

Row | SMILES | apparent permeability constant (k′) [1] [h⁻¹] | bioavailability [2] | half-life [2] [h] | survival (melanoma B16F0 cells) [%] | cytotoxicity [3]
1 | O=C(N[C@H](CO)[C@H](O)c1ccc([N+](=O)[O-])cc1)C(Cl)Cl [chloramphenicol] | 1.207 ± 0.018 | 1-10% | 1.5 to 5 |  | 
2 | COc1cccc2c1C(=O)c1c(O)c3c(c(O)c1C2=O)C[C@@](O)(C(=O)CO)C[C@@H]3O[C@H]1C[C@H](N)[C@H](O)[C@H](C)O1 [DOX-HCl solution, doxorubicin] |  |  |  | 58 | highly cytotoxic
